What was measured:
[1] = molecular target: T1, 5-hydroxytryptamine receptor 1A (Rattus norvegicus) (UniProt P19327); experiment: (§1) Inhibition of [3H]- 8-OH-DPAT binding to 5-HT1A-receptor from rat cerebral cortex membranes; type: cell membranes; conditions: Membrane
T1 sequence (whole entry): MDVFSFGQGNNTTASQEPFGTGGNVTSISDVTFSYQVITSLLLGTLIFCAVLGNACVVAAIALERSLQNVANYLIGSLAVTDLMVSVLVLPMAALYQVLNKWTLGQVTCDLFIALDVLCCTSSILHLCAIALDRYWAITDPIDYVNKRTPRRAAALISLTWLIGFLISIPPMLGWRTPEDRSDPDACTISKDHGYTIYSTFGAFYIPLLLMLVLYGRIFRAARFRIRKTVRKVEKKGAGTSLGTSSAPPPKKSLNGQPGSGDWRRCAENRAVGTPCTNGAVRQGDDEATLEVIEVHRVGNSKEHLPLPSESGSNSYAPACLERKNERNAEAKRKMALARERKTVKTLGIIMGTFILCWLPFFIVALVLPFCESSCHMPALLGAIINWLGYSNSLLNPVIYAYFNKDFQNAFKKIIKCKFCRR

[2] = molecular target: T2, 5-hydroxytryptamine receptor 1A (Rattus norvegicus, UniProt P19327); experiment: as §1; type: cell membranes, Membrane
T2 sequence (P19327 whole entry): T1 sequence (whole entry)

[3] = test system: Rattus norvegicus; experiment: (§2) In vivo inhibition of L-uM/Kg; type: functional
[4] = test system: Rattus norvegicus; experiment: as §2; type: functional; remark: listed apart in the source
[5] = test system: Rattus norvegicus; experiment: Agonism to 5-HT1A receptor was measured by the accumulation of DOPA in limbic region of non pretreated rats subcutaneously at 0.32 um/Kg; type: functional, Limbic system
[6] = test system: Rattus norvegicus; experiment: Agonism to 5-HT1A receptor was measured by the accumulation of DOPA in striatum of non pretreated rats subcutaneously at 0.32 um/Kg; type: functional
[7] = molecular target: T1, 5-hydroxytryptamine receptor 1A (Rattus norvegicus); experiment: Compound evaluated for inhibiting the binding of [3H]- 8-OH-DPAT to 5-HT1A-receptor from cerebral cortex membranes of rat measured as Hill coefficient; type: tissue-based; conditions: Membrane

Row | SMILES | Hill coefficient [1] | Ki [2] | Activity [3] | Activity [4] | Activity [5] | Activity [6] | Hill coefficient [7]
1 | CCCN(CCC)[C@@H]1CCc2ccccc2C1 | 0.85 | 17 nM | – | – | – | – | –
2 | CCCN(CCC)[C@@H]1CCc2cccc(O)c2C1 | 0.97 | – | 51.2 ng (g of tissue)-1 | 102 ng (g of tissue)-1 | 414 ng (g of tissue)-1 | 1280 ng (g of tissue)-1 | –
3 | CCCN(CCC)[C@H]1CCc2cccc(-c3ccccc3)c2C1 | 1.04 | 24 nM | – | – | – | – | –
4 | CCCN(CCC)[C@@H]1CCc2cccc(C(=O)OC)c2C1 | – | 4.3 nM | – | – | – | – | 0.9
5 | CCCN(CCC)[C@@H]1CCc2cccc(OC)c2C1 | 1.11 | 1.5 nM | – | – | – | – | –
6 | CCCN(CCC)[C@H]1CCc2cccc(OS(=O)(=O)C(F)(F)F)c2C1 | 0.83 | 9.5 nM | – | – | – | – | –
7 | CCCN(CCC)[C@H]1CCc2cccc(C)c2C1 | 1.04 | 62 nM | – | – | – | – | –
8 | CCCN(CCC)[C@H]1CCc2cccc(O)c2C1 | 0.86 | – | 55.8 ng (g of tissue)-1 | 112 ng (g of tissue)-1 | 445 ng (g of tissue)-1 | 1136 ng (g of tissue)-1 | –
9 | CCCN(CCC)[C@H]1CCc2cccc(C(C)=O)c2C1 | 0.71 | 0.7 nM | 58.5 ng (g of tissue)-1 | 89 ng (g of tissue)-1 | 365 ng (g of tissue)-1 | 1098 ng (g of tissue)-1 | –
10 | CCCN(CCC)[C@H]1CCc2ccccc2C1 | 0.83 | 56 nM | – | – | – | – | –
11 | CCCN(CCC)[C@H]1CCc2cccc(C(=O)OC)c2C1 | – | 1.7 nM | – | – | – | – | 1.01
12 | CCCN(CCC)[C@@H]1CCc2cccc(C(C)=O)c2C1 | – | 1.8 nM | 62.1 ng (g of tissue)-1 | 111 ng (g of tissue)-1 | 399 ng (g of tissue)-1 | 1101 ng (g of tissue)-1 | 0.96
13 | CCCN(CCC)[C@@H]1CCc2cccc(OS(=O)(=O)C(F)(F)F)c2C1 | 0.79 | 3.8 nM | – | – | – | – | –
14 | CCCN(CCC)[C@H]1CCc2cccc(OC)c2C1 | 0.96 | 2.8 nM | – | – | – | – | –
15 | CCCN(CCC)[C@@H]1CCc2cccc(-c3ccccc3)c2C1 | 1 | 7.7 nM | – | – | – | – | –
16 | CCCN(CCC)C1CCc2cccc(C(=O)O)c2C1 (racemic) | – | > 300 nM | – | – | – | – | –
17 | CCCN(CCC)[C@@H]1CCc2cccc(C)c2C1 | 1.13 | 34 nM | – | – | – | – | –

From ChEMBL document CHEMBL1125987, “C8-substituted derivatives of 2-(dipropylamino)tetralin: Palladium-catalyzed synthesis and interactions with 5-HT1A-receptors” (Bioorg Med Chem Lett, 1991)
